Molecules are shown by their SMILES.

The assay deals with post-synaptic 5-HT1A receptor. Put plainly: Inhibition of forepaw treading induced by 8-OH-DPAT in rats. In kind it is in vivo. Particulars: i.p., forepaw treading induced by 1 mg/kg s.c. 8-OH-DPAT. How it is done:
Inhibition of forepaw treading induced by 8-OH-DPAT in rats:
Male Sprague-Dawley rats (150-175 g) obtained from Charles River (Italy), were housed in a climate-controlled room and maintained on a 12 h light/dark cycle with free access to food and water. On the day of experiment, rats were placed singly in clear plastic boxes. Reserpinised rats were treated with reserpine, 1 mg/kg s.c., 18-24 h before the test.
The appearance of the forepaw treading symptom induced by post-synaptic stimulation of the 5HT1A receptors was noted, and its intensity was scored using a ranked intensity scale in which: 0 = absent, 1 = equivocal, 2 = present and 3 = intense. Behavioural scores for each treated rat were accumulated over the time course (5 observation periods) and expressed as mean values of 8-10 rats.

For the molecule `COc1ccccc1N1CCN(CCCCN2C(=O)c3ccccc3C2=O)CC1` [NAN-190, 1-(2-methoxyphenyl)-4-[4-(2-phthalimido)-butyl]-piperazine], the “NORMAL RATS ID50” value (normal rats) was 700 (500-1000) µg/Kg. Where the note is “reserpinized rats”, the “RESERPINIZED RATS ID50” value is 2000 (1600-2400) µg/Kg.
